The values below come from patent publication US8343993B2, “Hydroxyalkyl substituted imidazonaphthyridines” (3M Innovative Properties Company, priority 2005, dated 2013).

The structures appear in SMILES notation. Like-named read-outs stand apart in the source and are kept apart here.

The subject of one series is IFN-α. In words: Cytokine induction in human cells (PBMC): IFN-α secreted into culture media, ELISA. Particulars: 30-0.014 μM, lowest concentration inducing over 20 pg/mL, median where several experiments, read-out: Minimum Effective Concentration IFN. In kind it is cell-based. The text has this:
(§1) An in vitro human blood cell system is used to assess cytokine induction. Activity is based on the measurement of interferon (α) and tumor necrosis factor (α) (IFN-α, and TNF-α, respectively) secreted into culture media as described by Testerman et. al. in “Cytokine Induction by the Immunomodulators Imiquimod and S-27609”, Journal of Leukocyte Biology, 58, 365-372 (September, 1995).
(§2) Whole blood from healthy human donors is collected by venipuncture into vacutainer tubes or syringes containing EDTA. Peripheral blood mononuclear cells (PBMC) are separated from whole blood by density gradient centrifugation using HISTOPAQUE-1077 (Sigma, St. Louis, Mo.) or Ficoll-Paque Plus (Amersham Biosciences Piscataway, N.J.). Blood is diluted 1:1 with Dulbecco's Phosphate Buffered Saline (DPBS) or Hank's Balanced Salts Solution (HBSS). Alternately, whole blood is placed in Accuspin (Sigma) or LeucoSep (Greiner Bio-One, Inc., Longwood Fla.) centrifuge frit tubes containing density gradient medium. The PBMC layer is collected and washed twice with DPBS or HBSS and re-suspended at 4×10^6 cells/mL in RPMI complete. The PBMC suspension is added to 96 well flat bottom sterile tissue culture plates containing an equal volume of RPMI complete media containing test compound.
(§3) The compounds are solubilized in dimethyl sulfoxide (DMSO). The DMSO concentration should not exceed a final concentration of 1% for addition to the culture wells. The compounds are generally tested at concentrations ranging from 30-0.014 μM. Controls include cell samples with media only, cell samples with DMSO only (no compound), and cell samples with reference compound.
(§4) The solution of test compound is added at 60 μM to the first well containing RPMI complete and serial 3 fold dilutions are made in the wells. The PBMC suspension is then added to the wells in an equal volume, bringing the test compound concentrations to the desired range (usually 30-0.014 μM). The final concentration of PBMC suspension is 2×10^6 cells/mL. The plates are covered with sterile plastic lids, mixed gently and then incubated for 18 to 24 hours at 37° C. in a 5% carbon dioxide atmosphere.
(§5) Following incubation the plates are centrifuged for 10 minutes at 1000 rpm (approximately 200×g) at 4° C. The cell-free culture supernatant is removed and transferred to sterile polypropylene tubes. Samples are maintained at −30 to −70° C. until analysis. The samples are analyzed for IFN-α by ELISA and for TNF-α by IGEN/BioVeris Assay.
IFN-α concentration is determined with a human multi-subtype colorimetric sandwich ELISA (Catalog Number 41105) from PBL Biomedical Laboratories, Piscataway, N.J. Results are expressed in pg/mL.
Analysis of the data has two steps. First, the greater of the mean DMSO (DMSO control wells) or the experimental background (usually 20 pg/mL for IFN-α and 40 pg/mL for TNF-α) is subtracted from each reading. If any negative values result from background subtraction, the reading is reported as “*” and is noted as not reliably detectable. In subsequent calculations and statistics, “*” is treated as a zero. Second, all, background subtracted values are multiplied by a single adjustment ratio to decrease experiment to experiment variability. The adjustment ratio is the area of the reference compound in the new experiment divided by the expected area of the reference compound based on the past 61 experiments (unadjusted readings). […] The reference compound used is 2-[4-amino-2-ethoxymethyl-6,7,8,9-tetrahydro-α,α-dimethyl-1H-imidazo[4,5-c]quinolin-1-yl]ethanol hydrate (U.S. Pat. No. 5,352,784; Example 91) and the expected area is the sum of the median dose values from the past 61 experiments.
The minimum effective concentration is calculated based on the background-subtracted, reference-adjusted results for a given experiment and compound. […]

The next series relates to TNF-α. Briefly: Cytokine induction in human cells (PBMC): TNF-α secreted into culture media, ORIGEN M-Series immunoassay. Type of series: cell-based. The conditions noted are these: 30-0.014 μM, lowest concentration inducing over 40 pg/mL, median where several experiments, read-out: Minimum Effective Concentration TNF.
Text: as §1, §2, §3, §4, §5
The TNF-α concentration is determined by ORIGEN M-Series Immunoassay and read on an IGEN M-8 analyzer from BioVeris Corporation, formerly known as IGEN International, Gaithersburg, Md. The immunoassay uses a human TNF-α capture and detection antibody pair (Catalog Numbers AHC3419 and AHC3712) from Biosource International, Camarillo, Calif. Results are expressed in pg/mL.
Analysis of the data has two steps. First, the greater of the mean DMSO (DMSO control wells) or the experimental background (usually 20 pg/mL for IFN-α and 40 pg/mL for TNF-α) is subtracted from each reading. If any negative values result from background subtraction, the reading is reported as “*” and is noted as not reliably detectable. In subsequent calculations and statistics, “*” is treated as a zero. Second, all, background subtracted values are multiplied by a single adjustment ratio to decrease experiment to experiment variability. The adjustment ratio is the area of the reference compound in the new experiment divided by the expected area of the reference compound based on the past 61 experiments (unadjusted readings). […] The reference compound used is 2-[4-amino-2-ethoxymethyl-6,7,8,9-tetrahydro-α,α-dimethyl-1H-imidazo[4,5-c]quinolin-1-yl]ethanol hydrate (U.S. Pat. No. 5,352,784; Example 91) and the expected area is the sum of the median dose values from the past 61 experiments. […]

The compound `CC(C)(O)Cn1c(CO)nc2c(N)nc3cccnc3c21` [Example 6, 1-(4-Amino-2-hydroxymethyl-1H-imidazo[4,5-c][1,5]naphthyridin-1-yl)-2-methylpropan-2-ol] yielded a melting point of 235 to 237 °C. The minimal effective concentration with IFN-α (Table 3, 18 to 24 hours) came out at 1.11 µM. In addition, the minimal effective concentration in the series on IFN-α (Table 4, 18 to 24 hours) was 1.11 µM. Besides, the minimal effective concentration in the series with TNF-α (Table 3, 18 to 24 hours) was 10 µM. Moreover, the minimal effective concentration in the series on TNF-α (Table 4, 18 to 24 hours) came out at 10 µM.

`CC(C)(O)Cn1c(CCO)nc2c(N)nc3cccnc3c21` [Example 7, 1-[4-Amino-2-(2-hydroxyethyl)-1H-imidazo[4,5-c][1,5]naphthyridin 1-yl]-2-methylpropan-2-ol] had a melting point of 194 to 195 °C. The minimal effective concentration in the series on IFN-α (Table 3, 18 to 24 hours) is 3.33 µM. Also, in the series with IFN-α (Table 4, 18 to 24 hours), the minimal effective concentration is 3.33 µM. Also, the minimal effective concentration with TNF-α (Table 3, 18 to 24 hours) was determined as 30 µM. Also, the minimal effective concentration in the series on TNF-α (Table 4, 18 to 24 hours) worked out at 30 µM.

`CC(C)(F)Cn1c(CO)nc2c(N)nc3cccnc3c21` [Example 14, [4-Amino-1-(2-fluoro-2-methylpropyl)-1H-imidazo[4,5-c][1,5]naphthyridin-2-yl]methanol] displayed a melting point of 240 to 241 °C. Besides, the minimal effective concentration in the series with IFN-α (Table 4, 18 to 24 hours) was 1.11 µM. In addition, the minimal effective concentration with TNF-α (Table 4, 18 to 24 hours) worked out at 3.33 µM.

With `CC(C)(F)Cn1c(CCO)nc2c(N)nc3cccnc3c21` [Example 15, 2-[4-Amino-1-(2-fluoro-2-methylpropyl)-1H-imidazo[4,5-c][1,5]naphthyridin-2-yl]ethanol], the melting point is 224 to 225 °C. Moreover, the minimal effective concentration in the series on IFN-α (Table 4, 18 to 24 hours) amounted to 1.11 µM. The minimal effective concentration in the series on TNF-α (Table 4, 18 to 24 hours) stood at 10 µM.

Turning to `CC(C)Cn1c(CO)nc2c(N)nc3cccnc3c21` [Example 96, [4-Amino-1-(2-methylpropyl)-1H-imidazo[4,5-c][1,5]naphthyridin-2-yl]methanol], the melting point lay within 226 to 228 °C. Also, in the series with IFN-α (Table 4, 18 to 24 hours), the minimal effective concentration was found to be 1.11 µM. The minimal effective concentration in the series on TNF-α (Table 4, 18 to 24 hours) amounted to 30 µM.

The term melting point denotes the temperature of the solid-liquid transition.
